According to the NIST ThermoML archive (doi:10.1016/j.jct.2005.09.003):
± gives the expanded uncertainty stated by the source.

Experiment: xn = mol fraction of the nth substance listed
Conditions: 298.15 K, Liquid

## CCCCCCCl [1-chlorohexane] + CCCCCCCC
100 kPa, x2 = 0
  mass density: 873.42 ± 0.43 kg/m3
100 kPa, x2 = 0.1016
  mass density: 852.6 ± 0.44 kg/m3
100 kPa, x2 = 0.1996
  mass density: 833.25 ± 0.45 kg/m3
100 kPa, x2 = 0.3153
  mass density: 811.26 ± 0.47 kg/m3
100 kPa, x2 = 0.3948
  mass density: 796.69 ± 0.49 kg/m3
100 kPa, x2 = 0.4862
  mass density: 780.47 ± 0.5 kg/m3
100 kPa, x2 = 0.5938
  mass density: 762.03 ± 0.52 kg/m3
100 kPa, x2 = 0.6966
  mass density: 745.09 ± 0.55 kg/m3
100 kPa, x2 = 0.794
  mass density: 729.61 ± 0.57 kg/m3
100 kPa, x2 = 0.9001
  mass density: 713.36 ± 0.59 kg/m3
2130 kPa, x2 = 0
  mass density: 874.73 ± 0.46 kg/m3
2130 kPa, x2 = 0.1016
  mass density: 854.08 ± 0.48 kg/m3
2130 kPa, x2 = 0.1996
  mass density: 834.69 ± 0.5 kg/m3
2130 kPa, x2 = 0.3153
  mass density: 812.8 ± 0.53 kg/m3
2130 kPa, x2 = 0.3948
  mass density: 798.13 ± 0.54 kg/m3
2130 kPa, x2 = 0.4862
  mass density: 781.96 ± 0.57 kg/m3
2130 kPa, x2 = 0.5938
  mass density: 763.56 ± 0.6 kg/m3
2130 kPa, x2 = 0.6966
  mass density: 746.66 ± 0.63 kg/m3
2130 kPa, x2 = 0.794
  mass density: 731.16 ± 0.65 kg/m3
2130 kPa, x2 = 0.9001
  mass density: 714.88 ± 0.68 kg/m3
4150 kPa, x2 = 0
  mass density: 876.45 ± 0.49 kg/m3
4150 kPa, x2 = 0.1016
  mass density: 855.81 ± 0.52 kg/m3
4150 kPa, x2 = 0.1996
  mass density: 836.43 ± 0.54 kg/m3
4150 kPa, x2 = 0.3153
  mass density: 814.54 ± 0.58 kg/m3
4150 kPa, x2 = 0.3948
  mass density: 799.88 ± 0.6 kg/m3
4150 kPa, x2 = 0.4862
  mass density: 783.71 ± 0.63 kg/m3
4150 kPa, x2 = 0.5938
  mass density: 765.29 ± 0.67 kg/m3
4150 kPa, x2 = 0.6966
  mass density: 748.4 ± 0.7 kg/m3
4150 kPa, x2 = 0.794
  mass density: 732.88 ± 0.73 kg/m3
4150 kPa, x2 = 0.9001
  mass density: 716.61 ± 0.77 kg/m3
6180 kPa, x2 = 0
  mass density: 878.31 ± 0.51 kg/m3
6180 kPa, x2 = 0.1016
  mass density: 857.67 ± 0.54 kg/m3
6180 kPa, x2 = 0.1996
  mass density: 838.25 ± 0.58 kg/m3
6180 kPa, x2 = 0.3153
  mass density: 816.37 ± 0.62 kg/m3
6180 kPa, x2 = 0.3948
  mass density: 801.68 ± 0.66 kg/m3
6180 kPa, x2 = 0.4862
  mass density: 785.49 ± 0.69 kg/m3
6180 kPa, x2 = 0.5938
  mass density: 767.08 ± 0.73 kg/m3
6180 kPa, x2 = 0.6966
  mass density: 750.15 ± 0.77 kg/m3
6180 kPa, x2 = 0.794
  mass density: 734.61 ± 0.81 kg/m3
6180 kPa, x2 = 0.9001
  mass density: 718.33 ± 0.85 kg/m3
8210 kPa, x2 = 0
  mass density: 879.79 ± 0.53 kg/m3
8210 kPa, x2 = 0.1016
  mass density: 859.18 ± 0.58 kg/m3
8210 kPa, x2 = 0.1996
  mass density: 839.81 ± 0.62 kg/m3
8210 kPa, x2 = 0.3153
  mass density: 817.9 ± 0.67 kg/m3
8210 kPa, x2 = 0.3948
  mass density: 803.24 ± 0.71 kg/m3
8210 kPa, x2 = 0.4862
  mass density: 787.05 ± 0.75 kg/m3
8210 kPa, x2 = 0.5938
  mass density: 768.66 ± 0.8 kg/m3
8210 kPa, x2 = 0.6966
  mass density: 751.72 ± 0.84 kg/m3
8210 kPa, x2 = 0.794
  mass density: 736.21 ± 0.89 kg/m3
8210 kPa, x2 = 0.9001
  mass density: 719.94 ± 0.93 kg/m3
10230 kPa, x2 = 0
  mass density: 881.44 ± 0.56 kg/m3
10230 kPa, x2 = 0.1016
  mass density: 860.8 ± 0.61 kg/m3
10230 kPa, x2 = 0.1996
  mass density: 841.43 ± 0.66 kg/m3
10230 kPa, x2 = 0.3153
  mass density: 819.53 ± 0.72 kg/m3
10230 kPa, x2 = 0.3948
  mass density: 804.88 ± 0.77 kg/m3
10230 kPa, x2 = 0.4862
  mass density: 788.69 ± 0.81 kg/m3
10230 kPa, x2 = 0.5938
  mass density: 770.3 ± 0.87 kg/m3
10230 kPa, x2 = 0.6966
  mass density: 753.38 ± 0.92 kg/m3
10230 kPa, x2 = 0.794
  mass density: 737.85 ± 0.96 kg/m3
10230 kPa, x2 = 0.9001
  mass density: 721.55 ± 1 kg/m3
11250 kPa, x2 = 0
  mass density: 882.22 ± 0.57 kg/m3
11250 kPa, x2 = 0.1016
  mass density: 861.6 ± 0.63 kg/m3
11250 kPa, x2 = 0.1996
  mass density: 842.23 ± 0.68 kg/m3
11250 kPa, x2 = 0.3153
  mass density: 820.34 ± 0.75 kg/m3
11250 kPa, x2 = 0.3948
  mass density: 805.7 ± 0.79 kg/m3
11250 kPa, x2 = 0.4862
  mass density: 789.48 ± 0.84 kg/m3
11250 kPa, x2 = 0.5938
  mass density: 771.11 ± 0.9 kg/m3
11250 kPa, x2 = 0.6966
  mass density: 754.16 ± 0.95 kg/m3
11250 kPa, x2 = 0.794
  mass density: 738.66 ± 1 kg/m3
11250 kPa, x2 = 0.9001
  mass density: 722.34 ± 1.1 kg/m3
12260 kPa, x2 = 0
  mass density: 883.01 ± 0.59 kg/m3
12260 kPa, x2 = 0.1016
  mass density: 862.42 ± 0.65 kg/m3
12260 kPa, x2 = 0.1996
  mass density: 843.03 ± 0.7 kg/m3
12260 kPa, x2 = 0.3153
  mass density: 821.13 ± 0.77 kg/m3
12260 kPa, x2 = 0.3948
  mass density: 806.5 ± 0.82 kg/m3
12260 kPa, x2 = 0.4862
  mass density: 790.3 ± 0.87 kg/m3
12260 kPa, x2 = 0.5938
  mass density: 771.9 ± 0.93 kg/m3
12260 kPa, x2 = 0.6966
  mass density: 754.95 ± 0.98 kg/m3
12260 kPa, x2 = 0.794
  mass density: 739.44 ± 1 kg/m3
12260 kPa, x2 = 0.9001
  mass density: 723.13 ± 1.1 kg/m3
14290 kPa, x2 = 0
  mass density: 884.61 ± 0.62 kg/m3
14290 kPa, x2 = 0.1016
  mass density: 864.01 ± 0.68 kg/m3
14290 kPa, x2 = 0.1996
  mass density: 844.63 ± 0.74 kg/m3
14290 kPa, x2 = 0.3153
  mass density: 822.72 ± 0.82 kg/m3
14290 kPa, x2 = 0.3948
  mass density: 808.08 ± 0.87 kg/m3
14290 kPa, x2 = 0.4862
  mass density: 791.9 ± 0.93 kg/m3
14290 kPa, x2 = 0.5938
  mass density: 773.49 ± 0.99 kg/m3
14290 kPa, x2 = 0.6966
  mass density: 756.55 ± 1.1 kg/m3
14290 kPa, x2 = 0.794
  mass density: 741 ± 1.1 kg/m3
14290 kPa, x2 = 0.9001
  mass density: 724.69 ± 1.2 kg/m3
16310 kPa, x2 = 0
  mass density: 886.16 ± 0.64 kg/m3
16310 kPa, x2 = 0.1016
  mass density: 865.53 ± 0.71 kg/m3
16310 kPa, x2 = 0.1996
  mass density: 846.17 ± 0.78 kg/m3
16310 kPa, x2 = 0.3153
  mass density: 824.27 ± 0.87 kg/m3
16310 kPa, x2 = 0.3948
  mass density: 809.62 ± 0.92 kg/m3
16310 kPa, x2 = 0.4862
  mass density: 793.43 ± 0.98 kg/m3
16310 kPa, x2 = 0.5938
  mass density: 775.01 ± 1.1 kg/m3
16310 kPa, x2 = 0.6966
  mass density: 758.05 ± 1.1 kg/m3
16310 kPa, x2 = 0.794
  mass density: 742.51 ± 1.2 kg/m3
16310 kPa, x2 = 0.9001
  mass density: 726.2 ± 1.2 kg/m3
18340 kPa, x2 = 0
  mass density: 887.68 ± 0.67 kg/m3
18340 kPa, x2 = 0.1016
  mass density: 867.07 ± 0.75 kg/m3
18340 kPa, x2 = 0.1996
  mass density: 847.69 ± 0.82 kg/m3
18340 kPa, x2 = 0.3153
  mass density: 825.8 ± 0.91 kg/m3
18340 kPa, x2 = 0.3948
  mass density: 811.15 ± 0.97 kg/m3
18340 kPa, x2 = 0.4862
  mass density: 794.94 ± 1 kg/m3
18340 kPa, x2 = 0.5938
  mass density: 776.55 ± 1.1 kg/m3
18340 kPa, x2 = 0.6966
  mass density: 759.59 ± 1.2 kg/m3
18340 kPa, x2 = 0.794
  mass density: 744.03 ± 1.3 kg/m3
18340 kPa, x2 = 0.9001
  mass density: 727.69 ± 1.3 kg/m3
20370 kPa, x2 = 0
  mass density: 889.18 ± 0.69 kg/m3
20370 kPa, x2 = 0.1016
  mass density: 868.58 ± 0.78 kg/m3
20370 kPa, x2 = 0.1996
  mass density: 849.18 ± 0.86 kg/m3
20370 kPa, x2 = 0.3153
  mass density: 827.29 ± 0.96 kg/m3
